Data taken from patent US12187992B2, “Method and device for early cancer screening” (The Regents of the University of California, priority 2020, dated 2025).
Entries after “also recorded” stand apart in the source; their conditions may differ.

What was measured:
Assay type in all cases: cell-based, human
[1] = tested on: weakly adherent MDA-MB-231 cells; experiment: 2D migration assay on step-gradient hydrogels under drug treatment (durotaxis); settings: WA mammary cells
Text: (§1) A two-step photopolymerization method was used as described previously (Happe et al., 2017) to produce hydrogels with alternating elasticity profiles. Acrylamide concentrations of the prepolymer solutions were modified to obtain elasticities matching that of the tumor and stromal environment of each type of cancer. For breast cancer hydrogels, 3% acrylamide (3.7% for lung, 6.4% for prostate) and 0.4% bis-acrylamide were used for the first prepolymer solution, which was polymerized between a methacrylated 18 mm coverslip and a chlorosilanated glass slide by exposing to ultraviolet light (350 nm) for 5 minutes, using 2-hydroxy-4′-(2-hydroxyethoxy)-2-methylpropiophenone (0.5%) as the photo-initiator. The PA hydrogel was removed from the chlorosilanated glass slide and dehydrated for 1 hour on a hot plate at 30° C. prior to rehydrating with a 2% acrylamide (3.7% for lung, 3.2% for prostate) and 0.4% bis-acrylamide prepolymer solution. The rehydrated gel was again exposed to UV light for 5 min through a high-resolution chrome patterned photomask 200 μm dark stripes and 100 μm clear stripes. The Young's moduli of each region were validated using atomic force microscopy.
(§2) The hydrogels were then placed in a 12-well plate on top of 50 μl of 2 mg/ml of collagen I to adhere the coverslip to the bottom of the well. After the collagen polymerized, the gels were immersed in a solution of sulfosuccinimidyl 6-(4′-azido-2′-nitrophenylamino)hexanoate (0.2 mg/ml, Sulfo-SANPAH; Pierce) dissolved in 4-(2-hydroxyethyl)-1-piperazineethanesulfonic acid buffer (pH 8.4, 50 mM) and exposed to UV light (350 nm) for 10 minutes. After washing several times with PBS, the functionalized surface of the gels was coated with collagen I (150 μg/ml) by incubating overnight at 37° C.
(§3) Weakly and strongly adherent cells were isolated at varying shear stresses using a parallel plate flow chamber (Beri et al., 2020). To ensure sufficient spacing between individual cells, MDA-MB-231 and NCI-H1299 cells were seeded at […] onto a fibronectin (2 μg/cm^2) coated glass plate and incubated overnight. […] For each cell line, PBS free of magnesium and calcium and with 4.5 g/L of dextrose was used to shear cells. Shear stresses used to detach the weakly adherent (WA) population were selected to collect about 20,000 cells at a given flow rate (3 min at 30 dynes/cm^2 for MDA-MB-231, 3 min at 60 dynes/cm^2 for PC-3 and NCI-H1299 cells). The strongly adherent (SA) population was collected after washing away the intermediate population at a higher shear stress (2 min 500 at dynes/cm^2 for MDA-MB-231, 5 min at 300 dynes/cm^2 for NCI-H1299, and 2 min at 750 dynes/cm^2 for PC-3), and detaching the remaining SA population using 0.25% trypsin-EDTA. Media was then pumped though the device to neutralize the trypsin and collect the SA cells. Collected cells were then seeded onto hydrogels and allowed to adhere for […] 2 hours prior to imaging.
(§4) Isolated cells were seeded at ˜1500 cells/well onto step-gradient gels fixed in a 12-well plate and allowed to adhere for no more than 2 hours to ensure a random distribution across the step-gradient at the start of imaging. The cells were imaged over 24 hours using a Nikon Eclipse Ti-S microscope equipped with a temperature and CO2 controller (Pathology Devices Inc., LiveCell). […] Cell trajectories were collected and analyzed using a custom MATLAB script (https://github.com/compactmatterlab/Durotaxis, MathWorks, Natick, MA). […]

[2] = tested on: weakly adherent MDA-MB231 cells; experiment: 2D migration assay on collagen gels under microtubule-targeting drug treatment; settings: nocodazole 0.2 ug/mL, paclitaxel 0.5 ug/mL, tracked 24 hours on collagen gels
Experimental: (§5) To isolate the weakest and strongest 2% of the MDA-MB231 cell population for migration assays, the seeded plate was subjected to a low shear stress (28 dynes/cm^2) for 3 minutes to isolate WA cells in the flow through from the outlet. The shear stress was then increased to a high shear stress (510 dynes/cm^2) for 2 minutes to eliminate intermediate cell fractions. The remaining steps to isolate SA cells are listed above. The weakest MCF10A and […] cells were isolated using 170 and 130 dynes/cm^2 of shear stress respectively; the strongest were isolated using 1275 and 595 dynes/cm^2 respectively. 2D migration assays on collagen gels: 2.4 mg/mL Type I collagen gels were prepared by mixing collagen (Corning) with PBS, DI water, and 1 M NaOH and adjusted to pH 7.0. Gels were added to a 12-well plate and cured at 37° C. for 30 minutes. The weakest and strongest 2% of the cell population were seeded onto the gels and incubated overnight. The cells were imaged with a Nikon Eclipse Ti-S microscope equipped with a temperature- and CO2-controlled stage. Cells were imaged at 10× in brightfield every 15 minutes for 24 hours. The migration data was analyzed via Fiji. The positions were normalized to the starting point and analyzed via a custom MATLAB script to compute instantaneous speed and cell displacement. […] Cells that interacted with other cells for more than 2 hours were not tracked, as cell-cell interactions artificially slowed cell speed. For MDA-MB231 cell migration under drug treatment, cells were treated with either 0.2 μg/mL nocodazole (Cayman Chemical) or 0.5 μg/mL paclitaxel (LC Laboratories). Cells were imaged the following day for 24 hours and tracked as stated above.

[3] = tested on: strongly adherent MDA-MB231 cells; experiment: as above; settings: nocodazole 0.2 ug/mL, paclitaxel 0.5 ug/mL, tracked 24 hours on collagen gels
Experimental: as §5

[4] = tested on: strongly adherent MDA-MB-231 cells; experiment: 2D migration assay on step-gradient hydrogels under drug treatment (durotaxis); settings: SA mammary cells; LPA 1, 10 μM or DMSO; t=3 and t=24 hours
Text: as §1, §2, §3, §4

## Cc1ccc2c(c1)C(=O)[C@]1(O)CCN(c3ccc([N+](=O)[O-])cc3)C1=N2 [blebbistatin, (S)-4′-nitro-Blebbistatin]
[1]; blebbistatin 100 μM vs DMSO, step-gradient hydrogels
  cell speed on soft and stiff substrates: decreased
[1]; blebbistatin 1, 10, 100 μM or DMSO, t=3 and t=27 hours
  durotactic behavior (cell fraction vs hydrogel position), dose dependent response: became more durotactic
[1]; blebbistatin-treated vs DMSO
  antidurotactic migration: much less likely
  likelihood to migrate from the soft substrate into the stiff substrate (durotactic migration): 2 fold

## COC(=O)Nc1nc2ccc(C(=O)c3cccs3)cc2[nH]1 [nocodazole]
[2]
  average migration speed: migration speed reduced to that of the strongly adherent cells; also recorded: significant decrease in migration speed; also recorded: significant decrease in average speed
[3]
  average migration speed: unaffected; also recorded: no change

## CC(=O)O[C@H]1C(=O)[C@@]2(C)[C@H]([C@H](OC(=O)c3ccccc3)[C@]3(O)C[C@H](OC(=O)[C@H](O)[C@@H](NC(=O)c4ccccc4)c4ccccc4)C(C)=C1C3(C)C)[C@]1(OC(C)=O)CO[C@@H]1C[C@@H]2O [paclitaxel]
[2]
  average migration speed: migration speed reduced to that of the strongly adherent cells; also recorded: significant decrease in migration speed; also recorded: significant decrease in average speed
[3]
  average migration speed: unaffected; also recorded: no change

## lysophosphatidic acid [lysophophatidic acid]
[4]
  durotactic behavior (cell fraction vs hydrogel position), dose dependent response: became less durotactic
